Common to all, as to experiment: Large panel kinase profiling
What all share (format): biochemical
Conditions in all cases: 1 μM test article, 1 mM ATP

The target in one experiment is ABL2 (Homo sapiens, UniProt P42684). In outline:
(§1)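 Steps: combine kinase, CSox-Sensor substrate, 1 mM ATP and 1 μM compound; seal and incubate at 30° C.; read top fluorescence kinetically each minute, Ex 360 nm/Em 485 nm.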

The target of the next experiment is AKT1 (Homo sapiens, UniProt P31749). Summed up:
as §1

For a further experiment, the target named is AURKB/AURB (Homo sapiens, UniProt Q96GD4). In outline:
as §1

A further experiment deals with T1, CHEK1/CHK1 (Homo sapiens, UniProt O14757).
T1 construct: AssayQuant Technologies, Inc. (ran the panel)
T1 sequence (O14757 1-476): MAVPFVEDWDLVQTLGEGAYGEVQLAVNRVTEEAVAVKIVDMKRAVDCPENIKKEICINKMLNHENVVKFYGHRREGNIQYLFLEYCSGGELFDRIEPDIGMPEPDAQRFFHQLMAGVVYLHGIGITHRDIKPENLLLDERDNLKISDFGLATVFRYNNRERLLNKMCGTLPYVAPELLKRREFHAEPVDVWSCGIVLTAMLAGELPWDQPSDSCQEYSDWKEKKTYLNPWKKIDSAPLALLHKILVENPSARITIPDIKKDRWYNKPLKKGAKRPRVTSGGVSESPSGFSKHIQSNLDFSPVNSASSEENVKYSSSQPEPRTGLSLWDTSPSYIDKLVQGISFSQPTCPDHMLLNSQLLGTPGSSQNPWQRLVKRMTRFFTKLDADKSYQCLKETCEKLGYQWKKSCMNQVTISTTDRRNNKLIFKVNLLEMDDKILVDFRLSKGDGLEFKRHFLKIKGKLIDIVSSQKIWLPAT
In outline:
as §1

The target in another experiment is T2, CRIK/CIT (Homo sapiens, UniProt O14578).
T2 construct: AssayQuant Technologies, Inc. (ran the panel)
Summed up: as §1

In another experiment the target is T3, CSNK2A1/CK2A1 (Homo sapiens, UniProt P68400).
T3 construct: AssayQuant Technologies, Inc. (service laboratory)
In outline:
as §1

In another experiment the target is ERBB2/HER2 (Homo sapiens, UniProt P04626). In outline: as §1
Another experiment concerns the target T4, JAK1(JH1JH2) (Homo sapiens, UniProt P23458).
T4 construct: JAK1(JH1JH2)
In outline: as §1

In a further experiment the target is KIT (Homo sapiens, UniProt P10721). In outline:
as §1

The next experiment deals with T5, NEK4 (Homo sapiens, UniProt P51957).
T5 construct: AssayQuant Technologies, Inc. (assay service)
T5 sequence (P51957 whole entry, species assumed): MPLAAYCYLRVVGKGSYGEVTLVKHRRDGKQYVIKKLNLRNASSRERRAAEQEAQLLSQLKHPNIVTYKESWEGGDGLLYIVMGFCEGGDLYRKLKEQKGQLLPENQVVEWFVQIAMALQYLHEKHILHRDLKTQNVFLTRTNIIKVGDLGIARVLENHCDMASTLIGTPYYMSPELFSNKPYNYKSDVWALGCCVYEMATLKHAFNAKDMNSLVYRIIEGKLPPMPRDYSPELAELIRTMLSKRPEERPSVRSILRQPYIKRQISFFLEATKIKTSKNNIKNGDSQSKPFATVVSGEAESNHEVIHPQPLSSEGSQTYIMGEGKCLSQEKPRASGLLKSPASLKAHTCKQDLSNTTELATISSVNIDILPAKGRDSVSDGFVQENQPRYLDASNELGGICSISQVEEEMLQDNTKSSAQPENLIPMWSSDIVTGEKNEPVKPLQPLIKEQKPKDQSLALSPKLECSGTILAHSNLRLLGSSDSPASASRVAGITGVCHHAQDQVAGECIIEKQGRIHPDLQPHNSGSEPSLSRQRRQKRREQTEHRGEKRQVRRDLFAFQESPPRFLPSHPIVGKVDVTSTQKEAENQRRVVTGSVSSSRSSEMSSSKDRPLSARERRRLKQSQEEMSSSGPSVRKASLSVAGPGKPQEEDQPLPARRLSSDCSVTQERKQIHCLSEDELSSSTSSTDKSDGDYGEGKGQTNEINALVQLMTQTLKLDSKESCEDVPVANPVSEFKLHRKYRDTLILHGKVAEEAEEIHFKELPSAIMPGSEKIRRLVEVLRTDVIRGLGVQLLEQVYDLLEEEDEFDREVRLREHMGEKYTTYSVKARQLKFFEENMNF
In outline:
as §1

The target of another experiment is PIM2 (Homo sapiens, UniProt Q9P1W9). In outline:
as §1

The target in a further experiment is PRKCH/PKCH (Homo sapiens, UniProt P24723). Summed up: as §1
Chain of PRKCH/PKCH (P24723 whole entry): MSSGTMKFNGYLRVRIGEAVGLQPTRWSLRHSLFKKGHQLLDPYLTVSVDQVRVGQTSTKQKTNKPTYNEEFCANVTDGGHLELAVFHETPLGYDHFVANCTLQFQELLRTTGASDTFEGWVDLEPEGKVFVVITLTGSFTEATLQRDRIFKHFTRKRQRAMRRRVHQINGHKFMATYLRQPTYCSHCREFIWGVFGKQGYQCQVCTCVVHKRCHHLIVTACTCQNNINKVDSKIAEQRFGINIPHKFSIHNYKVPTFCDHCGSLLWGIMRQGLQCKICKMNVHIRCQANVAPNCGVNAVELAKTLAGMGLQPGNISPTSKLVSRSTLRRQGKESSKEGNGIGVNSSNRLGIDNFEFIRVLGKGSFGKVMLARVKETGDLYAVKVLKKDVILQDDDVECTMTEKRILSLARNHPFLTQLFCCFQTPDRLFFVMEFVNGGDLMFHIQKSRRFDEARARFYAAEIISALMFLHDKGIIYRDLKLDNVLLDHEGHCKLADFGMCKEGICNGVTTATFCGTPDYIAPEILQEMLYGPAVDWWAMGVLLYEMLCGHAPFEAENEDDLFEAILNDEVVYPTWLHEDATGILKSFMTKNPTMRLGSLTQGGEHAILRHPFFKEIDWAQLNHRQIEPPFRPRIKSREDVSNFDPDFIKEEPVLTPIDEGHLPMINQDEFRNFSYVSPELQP
The target of another experiment is PRKCQ/PKCQ (Homo sapiens, UniProt Q04759). In outline:
as §1

The target of the next experiment is T6, SRC (Homo sapiens, UniProt P12931).
T6 construct: AssayQuant Technologies, Inc. (contract assay)
T6 sequence (P12931 whole entry, species assumed): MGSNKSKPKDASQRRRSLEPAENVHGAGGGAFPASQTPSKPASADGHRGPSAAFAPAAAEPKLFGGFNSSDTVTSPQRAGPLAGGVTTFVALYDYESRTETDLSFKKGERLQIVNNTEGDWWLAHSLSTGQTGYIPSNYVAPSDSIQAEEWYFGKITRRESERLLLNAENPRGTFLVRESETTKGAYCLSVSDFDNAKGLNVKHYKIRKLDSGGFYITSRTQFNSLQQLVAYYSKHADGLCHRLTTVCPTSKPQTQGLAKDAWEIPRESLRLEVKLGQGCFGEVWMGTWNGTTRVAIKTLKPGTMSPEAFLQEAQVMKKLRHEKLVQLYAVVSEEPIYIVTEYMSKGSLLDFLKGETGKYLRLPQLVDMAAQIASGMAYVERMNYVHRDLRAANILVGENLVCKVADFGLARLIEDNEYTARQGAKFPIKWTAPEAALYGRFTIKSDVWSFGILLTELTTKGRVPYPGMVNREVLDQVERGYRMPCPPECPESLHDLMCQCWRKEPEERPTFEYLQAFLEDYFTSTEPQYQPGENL
In outline:
as §1

A further experiment deals with T7, STK17A/DRAK1 (Homo sapiens, UniProt Q9UEE5).
T7 construct: AssayQuant Technologies, Inc. (contract assay)
T7 sequence (Q9UEE5 1-414): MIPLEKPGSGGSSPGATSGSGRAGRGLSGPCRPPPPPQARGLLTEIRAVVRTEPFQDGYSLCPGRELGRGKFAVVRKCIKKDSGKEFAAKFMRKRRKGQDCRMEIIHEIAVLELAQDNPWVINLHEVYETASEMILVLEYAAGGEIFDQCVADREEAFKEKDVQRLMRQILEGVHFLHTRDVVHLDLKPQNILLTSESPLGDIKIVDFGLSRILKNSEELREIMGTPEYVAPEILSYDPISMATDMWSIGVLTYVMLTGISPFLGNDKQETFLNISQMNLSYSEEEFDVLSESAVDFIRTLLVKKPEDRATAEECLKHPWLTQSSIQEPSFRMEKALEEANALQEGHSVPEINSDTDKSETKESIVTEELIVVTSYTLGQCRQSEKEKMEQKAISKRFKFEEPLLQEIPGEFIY
In outline:
as §1

The next experiment deals with T8, STK17B/DRAK2 (Homo sapiens, UniProt O94768).
T8 construct: AssayQuant Technologies, Inc. (contract assay)
T8 sequence (O94768 1-372): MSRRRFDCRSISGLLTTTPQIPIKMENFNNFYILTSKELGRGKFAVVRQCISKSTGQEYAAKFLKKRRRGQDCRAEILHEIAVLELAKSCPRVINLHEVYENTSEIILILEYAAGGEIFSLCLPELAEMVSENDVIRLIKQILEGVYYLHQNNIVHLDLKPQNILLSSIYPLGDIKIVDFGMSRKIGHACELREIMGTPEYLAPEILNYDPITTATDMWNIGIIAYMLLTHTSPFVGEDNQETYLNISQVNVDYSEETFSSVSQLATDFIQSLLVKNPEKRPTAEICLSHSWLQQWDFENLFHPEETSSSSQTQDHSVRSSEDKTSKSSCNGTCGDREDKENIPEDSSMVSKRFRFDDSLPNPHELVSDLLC
In outline:
as §1

Structures are written as SMILES.

The text below walks through data of patent US20220009920A1 (GB005, Inc., priority 2020, published 2022).

Chain of PIM2 (Q9P1W9 whole entry, species assumed): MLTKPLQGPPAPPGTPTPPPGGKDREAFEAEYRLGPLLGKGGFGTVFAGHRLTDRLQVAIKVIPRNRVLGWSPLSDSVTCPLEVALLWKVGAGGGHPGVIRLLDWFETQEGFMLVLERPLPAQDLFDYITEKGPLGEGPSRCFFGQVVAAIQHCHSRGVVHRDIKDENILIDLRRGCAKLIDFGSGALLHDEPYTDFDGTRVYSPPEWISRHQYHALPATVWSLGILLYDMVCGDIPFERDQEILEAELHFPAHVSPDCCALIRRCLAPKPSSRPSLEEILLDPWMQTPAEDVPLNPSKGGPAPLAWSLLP
Chain of AKT1 (P31749 whole entry): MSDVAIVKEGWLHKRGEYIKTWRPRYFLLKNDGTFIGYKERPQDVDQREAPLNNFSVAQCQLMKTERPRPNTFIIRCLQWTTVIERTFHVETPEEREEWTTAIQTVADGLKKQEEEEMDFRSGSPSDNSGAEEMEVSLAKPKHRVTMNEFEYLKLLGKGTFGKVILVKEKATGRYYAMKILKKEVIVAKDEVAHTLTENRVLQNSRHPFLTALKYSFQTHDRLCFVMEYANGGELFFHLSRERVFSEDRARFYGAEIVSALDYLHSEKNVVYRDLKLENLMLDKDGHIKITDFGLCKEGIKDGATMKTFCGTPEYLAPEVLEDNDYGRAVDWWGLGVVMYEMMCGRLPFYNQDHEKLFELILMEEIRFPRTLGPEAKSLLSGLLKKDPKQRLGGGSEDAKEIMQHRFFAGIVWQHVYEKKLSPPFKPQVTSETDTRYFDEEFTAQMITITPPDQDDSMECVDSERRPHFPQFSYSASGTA
Chain of KIT (P10721 26-976, species assumed): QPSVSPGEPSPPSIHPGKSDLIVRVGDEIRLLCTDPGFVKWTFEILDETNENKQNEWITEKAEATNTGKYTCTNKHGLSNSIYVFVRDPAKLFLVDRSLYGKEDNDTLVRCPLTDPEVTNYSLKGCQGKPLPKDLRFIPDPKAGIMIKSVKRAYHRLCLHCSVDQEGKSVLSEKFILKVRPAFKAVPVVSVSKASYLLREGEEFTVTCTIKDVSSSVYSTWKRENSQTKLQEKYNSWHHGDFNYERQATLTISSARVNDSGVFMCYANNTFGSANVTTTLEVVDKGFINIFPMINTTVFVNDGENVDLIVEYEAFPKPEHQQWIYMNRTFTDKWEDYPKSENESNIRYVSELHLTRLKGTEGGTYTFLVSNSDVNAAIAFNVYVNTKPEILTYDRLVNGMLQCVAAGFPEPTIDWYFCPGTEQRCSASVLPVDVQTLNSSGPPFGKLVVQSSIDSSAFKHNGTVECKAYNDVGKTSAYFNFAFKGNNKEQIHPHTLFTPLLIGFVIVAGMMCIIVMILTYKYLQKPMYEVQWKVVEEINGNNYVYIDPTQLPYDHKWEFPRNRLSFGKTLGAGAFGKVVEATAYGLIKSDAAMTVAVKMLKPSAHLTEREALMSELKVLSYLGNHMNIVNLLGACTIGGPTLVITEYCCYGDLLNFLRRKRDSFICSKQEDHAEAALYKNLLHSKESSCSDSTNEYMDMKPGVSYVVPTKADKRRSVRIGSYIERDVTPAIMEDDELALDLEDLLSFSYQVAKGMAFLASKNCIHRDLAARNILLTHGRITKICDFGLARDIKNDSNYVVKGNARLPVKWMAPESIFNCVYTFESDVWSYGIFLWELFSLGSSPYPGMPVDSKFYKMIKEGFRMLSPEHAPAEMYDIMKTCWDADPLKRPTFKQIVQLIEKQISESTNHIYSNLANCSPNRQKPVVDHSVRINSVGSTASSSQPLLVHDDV
Chain of AURKB/AURB (Q96GD4 whole entry): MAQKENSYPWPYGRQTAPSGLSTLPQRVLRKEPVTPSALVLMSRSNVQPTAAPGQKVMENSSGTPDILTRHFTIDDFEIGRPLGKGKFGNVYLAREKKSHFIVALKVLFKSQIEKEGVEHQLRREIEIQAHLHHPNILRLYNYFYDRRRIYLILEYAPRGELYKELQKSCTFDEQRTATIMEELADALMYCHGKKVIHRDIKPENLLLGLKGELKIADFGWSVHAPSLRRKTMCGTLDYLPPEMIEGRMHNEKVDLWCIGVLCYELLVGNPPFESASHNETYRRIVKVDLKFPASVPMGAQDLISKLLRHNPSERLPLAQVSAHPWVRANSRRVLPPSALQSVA
Chain of PRKCQ/PKCQ (Q04759 whole entry): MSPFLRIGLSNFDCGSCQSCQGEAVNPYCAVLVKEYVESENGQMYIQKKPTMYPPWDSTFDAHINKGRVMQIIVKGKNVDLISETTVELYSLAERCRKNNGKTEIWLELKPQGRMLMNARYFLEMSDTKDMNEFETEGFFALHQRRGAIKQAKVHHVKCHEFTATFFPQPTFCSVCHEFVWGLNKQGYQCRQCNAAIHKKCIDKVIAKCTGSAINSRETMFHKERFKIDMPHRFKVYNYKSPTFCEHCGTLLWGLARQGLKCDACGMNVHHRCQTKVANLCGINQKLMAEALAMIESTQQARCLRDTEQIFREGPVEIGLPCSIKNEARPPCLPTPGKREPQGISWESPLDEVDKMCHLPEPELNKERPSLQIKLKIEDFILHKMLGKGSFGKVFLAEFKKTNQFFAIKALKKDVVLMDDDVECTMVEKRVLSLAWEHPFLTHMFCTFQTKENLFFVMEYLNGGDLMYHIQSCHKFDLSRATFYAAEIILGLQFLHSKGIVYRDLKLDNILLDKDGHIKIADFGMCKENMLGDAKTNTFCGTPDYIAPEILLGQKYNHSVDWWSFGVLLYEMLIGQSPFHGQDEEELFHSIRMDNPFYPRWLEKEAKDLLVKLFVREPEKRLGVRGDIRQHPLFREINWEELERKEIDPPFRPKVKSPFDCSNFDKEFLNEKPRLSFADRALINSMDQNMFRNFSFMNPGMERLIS

As for `C=CC(=O)N1CCC[C@@H](c2c(F)cc(C(N)=O)c3[nH]c4c(c23)CCC4)C1` [Compound 10-2, (S)-8-(1-acryloylpiperidin-3-yl)-7-fluoro-1,2,3,4-tetrahydrocyclo-penta[b]indole-5-carboxamide], the inhibition at 1 µM against ABL2 was 1.9%; on AKT1, -14.8%; on AURKB/AURB it was -14.9%; against CHEK1/CHK1, 6.8%; at CRIK/CIT, 11.1%; against CSNK2A1/CK2A1 it was -32%. Moreover, the inhibition at 1 µM against ERBB2/HER2 is 14.5%; against JAK1(JH1JH2), 14.8%; against KIT it was 20.8%; against NEK4 it was -11.1%; at PIM2, 3.3%; on PRKCH/PKCH, -7.9%. Moreover, the inhibition at 1 µM against PRKCQ/PKCQ is -72.5%; against SRC, -1.8%; against STK17A/DRAK1, -28%; on STK17B/DRAK2 it was -23.7%.
For `C=CC(=O)N1CCCC(c2c(F)cc(C(N)=O)c3[nH]c4c(c23)CCCCC4)C1` (single isomer, unassigned) [Compound 5-6], the inhibition at 1 µM was -29.7% on ABL2; 20% against AKT1; -19% against AURKB/AURB; -34.8% at CHEK1/CHK1; -9.9% on CRIK/CIT; 0.4% at CSNK2A1/CK2A1. The inhibition at 1 µM was -2.2% against ERBB2/HER2; 8.5% at JAK1(JH1JH2); 5.5% at KIT; -5.3% against NEK4; 2.5% on PIM2; -3.6% on PRKCH/PKCH. Moreover, the inhibition at 1 µM on PRKCQ/PKCQ is -3.7%; at SRC, -28.3%; at STK17A/DRAK1 it was 22.4%; against STK17B/DRAK2 it was 0.3%.
Regarding `C=CC(=O)N1CCC[C@@H](c2c(F)cc(C(N)=O)c3[nH]c4c(c23)CC2(CC4)CC2)C1` [Compound 6-2, (S)-5-(1-acryloylpiperidin-3-yl)-6-fluoro-1,2,4,9-tetrahydrospiro[carbazole-3,1′-cyclopropane]-8-carboxamide], the inhibition at 1 µM at ABL2 is -1.3%; against AKT1, -17%; against AURKB/AURB, -11.5%; on CHEK1/CHK1, -23.1%; on CRIK/CIT, 9.1%; against CSNK2A1/CK2A1, -12%. Moreover, the inhibition at 1 µM against ERBB2/HER2 is 11.9%; against JAK1(JH1JH2) it was 29.4%; at KIT it was 26.9%; at NEK4 it was -6.5%; against PIM2, 10.9%; against PRKCH/PKCH, 5.3%. In addition, the inhibition at 1 µM is 0.7% against PRKCQ/PKCQ, -7% on SRC, -33.9% against STK17A/DRAK1 and -26.9% at STK17B/DRAK2.
